In patent US20240358727A1, “MICROSCALE THERMOPHORESIS TO EVALUATE CHANNEL LIPID INTERACTIONS AND METHODS OF TREATING NAV CHANNELS RELATED DISEASES” (Northeastern University, priority 2023, published 2024):
“And” between values parts separate entries of the source, which are not always exact repeats. Equal values may be shown once. “Also recorded” adds a separate entry of the source.

Experiments:
[1] = biological target: T1, Nav1.5-R1644C (Homo sapiens, UniProt Q14524, R1644C); assay: MST binding of diC8-PIP2 to GFP-Nav1.5-R1644C in cell lysate; conditions: for affinity (Kd) of Nav1.5-R1644C relative to WT, fold lower: R1644C vs WT
T1 construct: expressed in transfected cells; host or cells: HEK293T
Procedure: (§1) The method utilizes cell lysates obtained from transfected/infected cells that are lysed and incubated with varying concentrations of a water-soluble analogue of PIP2 commercially available as diC8-PI(4,5)P2, in a 384 well plate. Other phosphoinositides such as diC8PI(4)P of diC8PI(5)P can also be utilized. After a brief incubation (10-30 mins) samples are loaded onto capillary chips purchased from the company Nanotemper. Samples are run on the Nanotemper Monolith instrument. This instrument is advertised to detect green fluorescent protein (GFP) tagged proteins, however we have also used TFP (teal FP) tagged proteins. The instrument provides a short infra-red laser pulse which produces a short thermal gradient. Protein that is interacting with the lipid migrates differently through this thermal gradient and its movement is evaluated by the fluorescence of the GFP/TFP tag on the protein. Based on the concentration of the dic8-phosphoinositide, this resolves into a sigmoidal relationship that delivers an apparent affinity (Kd) value. A test ligand can be added to this assay at a known concentration that is at or close to its Kd for the channel. A shift in the channel's affinity for PIP2 in this assay can help indicate whether this test compound is a good drug candidate for further biological experiments.
(§2) Results. Our studies were designed to evaluate PIP2-regulation for Nav1.5 channelopathies from multiple perspectives. Given that there is a lack of structural data to identify where, or how many PIP2 molecules bind to Nav1.5, we performed a docking simulation to identify putative PIP2 binding sites in the open, rat and human Nav1.5 cryoEM structures (PDB: 6UZ3 and 7DTC) (56-58). We observed four potential PIP2 binding sites at the boundary between the inner leaflet of the membrane and the cytoplasm with one at the interface between each voltage sensor and the channel body. In each case, we noted electrostatic and hydrogen bond interactions between the headgroup of PIP2 and multiple disease associated residues. […]

[2] = biological target: T2, GFP-PHPLCδ (PIP2 biosensor) (Homo sapiens, UniProt P51178); assay: MST binding of diC8-PIP2 to GFP-tagged PHPLCδ1 (positive control)
T2 construct: the pleckstrin homology domain of phospholipase C delta (GFP-PHPLCδ), a PIP2 biosensor; expressed in transfected cells; host or cells: cell lysate
T2 sequence (P51178 21-130 limits assumed): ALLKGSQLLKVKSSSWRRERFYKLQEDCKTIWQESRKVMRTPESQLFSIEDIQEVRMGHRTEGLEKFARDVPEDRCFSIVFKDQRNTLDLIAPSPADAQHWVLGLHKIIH
Procedure: as §1
Results. […]

[3] = biological target: T3, WT-Nav1.5 (Homo sapiens, UniProt Q14524); assay: Whole-cell patch-clamp ILATE of wild type Nav1.5 in HEK293T cells with CRY2-5POCRL; format: cell-based; conditions: diC8-PIP2 in pipette
T3 construct: expressed in transfected cells; host or cells: HEK293T
Procedure: (§3) This is opposed when by 200 μM diC8-PIP2 in the pipette. Comparisons are Students t-test, *** P<0.01, ****P0.001 for 4-6 cells per group.
as §2, with “residues. Among these, we elected to perform functional studies on Nav1.5-R1644C, an LQT3 mutant located between the S4 and S5 transmembrane segments of DIV. We expressed wild type Nav1.5 or Nav1.5-R1644C with Nav1β, CIBN-CAAX and CRY2-5POCRL in HEK293T cells and studied ILATE with and without optogenetic dephosphorylation of PIP2. In wild-type Nav1.5, ILATE was 0.25±0.1% of the peak (n=8) whereas in Nav1.5-R1664C, ILATE was 1.2±0.2% of peak (n=8, P<0.01, unpaired t-test comparison to WT).” for “residues.”

[4] = biological target: T1, Nav1.5-R1644C; assay: Whole-cell patch-clamp ILATE of Nav1.5-R1644C in HEK293T cells with CRY2-5POCRL; format: cell-based
Procedure: as §3
Results. Our studies were designed to evaluate PIP2-regulation for Nav1.5 channelopathies from multiple perspectives. Given that there is a lack of structural data to identify where, or how many PIP2 molecules bind to Nav1.5, we performed a docking simulation to identify putative PIP2 binding sites in the open, rat and human Nav1.5 cryoEM structures (PDB: 6UZ3 and 7DTC) (56-58). We observed four potential PIP2 binding sites at the boundary between the inner leaflet of the membrane and the cytoplasm with one at the interface between each voltage sensor and the channel body. In each case, we noted electrostatic and hydrogen bond interactions between the headgroup of PIP2 and multiple disease associated residues. Among these, we elected to perform functional studies on Nav1.5-R1644C, an LQT3 mutant located between the S4 and S5 transmembrane segments of DIV. We expressed wild type Nav1.5 or Nav1.5-R1644C with Nav1β, CIBN-CAAX and CRY2-5POCRL in HEK293T cells and studied ILATE with and without optogenetic dephosphorylation of PIP2. In wild-type Nav1.5, ILATE was 0.25±0.1% of the peak (n=8) whereas in […], ILATE was 1.2±0.2% of peak (n=8, P<0.01, unpaired t-test comparison to WT). Dephosphorylation of PIP2 elevated ILATE in both channels to ˜4% of the peak but did so more rapidly for Nav1.5-R1644C. Thus, WT Nav1.5 ILATE plateaued after 180±15 s of optogenetic dephosphorylation compared to 86±22 s in Nav1.5-R1644C channels (n=8 for both experiments). […] Next, we used the Monolith Nanotemper system to establish a microscale thermophoresis (MST) approach to measure the binding affinity of PIP2 for Nav1.5 channels. MST measures the mobility of the GFP-tagged protein in response to an IR-laser pulse. Ligand binding alters the motion of the target protein, allowing the user to generate a binding curve and extracting a binding constant (Kd) (FIG. 6A). First, we studied GFP-Nav1.5 expressed in HEK293T cells along with Navβ1.
Next, aimed to test the hypothesis that the relationship of PIP2 with the channel in certain disease-associated variants is altered. We employed a variant of Nav1.5 identified in patients with Long QT Syndrome Type 3, Arg1644→C and assessed it sensitivity to the widely used 5P-OCRL construct. We observed a right shift in the G-V curve and an increase in the ILATE over WT conditions as well as a further increase following blue light induction of PIP2 dephosphorylation. We then used the patch pipette to enrich cells expressing these channels with diC8PI(4,5)P2. We observed that the enhanced ILATE observed under control conditions is mitigated by the inclusion of diC8PIP2 in patch pipette while the shift in the G-V is not rescued by the inclusion of diC8PI(4,5)P2 in the pipette.

With `CCCCCCCC(=O)OC[C@H](COP(=O)(O)O[C@@H]1[C@H](O)[C@H](O)[C@@H](OP(=O)(O)O)[C@H](OP(=O)(O)O)[C@H]1O)OC(=O)CCCCCCC` [diC8-PIP2] the Kd ([1]; Kd of diC8-PIP2 for Nav1.5-R1644C, GFP-Nav1.5-R1644C, HEK293T lysate) was 345 nM and 445 nM, the “affinity (Kd) of Nav1.5-R1644C relative to WT, fold lower” value [1] was ~8 fold and ~10 fold and the “affinity (Kd) of Nav1.5-R1644C relative to WT, fold lower” value ([1]; listed as diC8PI(4,5)P2) was “almost ten-fold lower”. For the same compound, the Kd [2] was 130 nM, the “effect on ILATE increase when PIP2 is dephosphorylated” value [3] was “opposed” and the “effect on elevated baseline ILATE” value ([4]; 200 μM diC8-PIP2 in pipette) was “ameliorated; also recorded: abolishing; also recorded: decreased”. The “effect on elevation in ILATE following optogenetic stimulation of CRY2-5POCRL” value ([4]; 200 μM diC8-PIP2 in pipette) was “opposed”, the “effect on more rapid rise of ILATE on PIP2 dephosphorylation” value ([4]; 200 μM diC8-PIP2 in pipette) was “opposed” and the “effect on elevated baseline ILATE” value ([4]; 200 μM diC8-PIP2 in pipette, listed as diC8PIP2) was “mitigated”. For the same compound, the ILATE ([4]; 200 μM diC8-PIP2 in pipette, without diC8-PIP2 1.2±0.2) was 0.46±0.1 % of peak INa and the “effect on right shift in the G-V” value ([4]; diC8PI(4,5)P2 in pipette) was “not rescued”.
